Measurements published in patent US20100179344A1, “2-Alkylidene-18,19-Dinor-Vitamin D Compounds” (WISCONSIN ALUMNI RESEARCH FOUNDATION, priority 2004, published 2010).

Experiments:
[1] = tested on: HL-60 cells; assay: HL-60 cell differentiation (NBT reduction); type: cell-based, human; conditions: FIG. 2; for percent of HL-60 cells induced to differentiate: NBT assay, concentration 1×10^−7M
Description: The differentiation of HL-60 promyelocytic into monocytes was determined as described by Ostrem et al (J. Biol. Chem. 262, 14164-14171, 1987).
The study drugs were dissolved in ethanol and the concentrations determined using UV spectrophotometry (2MD:molar extinction coefficient=42,000 and Imax=252 nm; 1,25(OH)2D3:molar extinction=18,200 and Imax=265 nm). Serial dilutions were prepared so that a range of drug concentrations could be tested without changing the final concentration of ethanol (<0.2%) present in the cell cultures.
Human promyelocytic leukemia (HL60) cells were grown in RPMI-1640 medium containing 10% fetal bovine serum. The cells were incubated at 37° C. in the presence of 5% CO2.
HL60 cells were plated at 1.2×10^5 cells/ml. Eighteen hours after plating, the cells were administered the drug in ethanol. Four days post-dose, the cells were harvested and a nitro blue tetrazolium reduction assay was performed (Collins et al., 1979; J. Exp. Med. 149:969-974, Appendix A). The percentage of differentiated cells was determined by counting a total of 200 cells and recording the number that contained intracellular black-blue formazan deposits. Verification of differentiation to monocytic cells was determined by measuring phagocytic activity (data not shown). All drug concentrations were tested in duplicate.
This is illustrated by the biological assay results obtained for (20S)-2-methylene-18,19-dinor-1α,25-dihydroxy-vitamin D3 which is summarized in FIGS. 2 through 6. […] Differentiation activity was assessed by a standard differentiation assay, abbreviated as NBT reduction (nitroblue tetrazolium reduction). The assay was conducted according to known procedures, as given, for example, by DeLuca et al U.S. Pat. No. 4,717,721 and Ostrem et al, J. Biol. Chem. 262, 14164, 1987. For the assay, the differentiation activity of the test compounds is expressed in terms of the percent of HL-60 cells having differentiated to normal cells in response to a given concentration of test compound.

[2] = target: T1, 1α,25-dihydroxyvitamin D pig intestinal nuclear receptor (Rattus norvegicus, UniProt P13053); assay: Competitive VDR binding; conditions: competition with 3H-1,25(OH)2D3; FIG. 1
T1 construct: Full-length recombinant rat receptor was expressed in E. coli; His tag (C); made in house; host or cells: E. coli BL21 (DE3) Codon Plus RIL
T1 sequence (P13053 1-423): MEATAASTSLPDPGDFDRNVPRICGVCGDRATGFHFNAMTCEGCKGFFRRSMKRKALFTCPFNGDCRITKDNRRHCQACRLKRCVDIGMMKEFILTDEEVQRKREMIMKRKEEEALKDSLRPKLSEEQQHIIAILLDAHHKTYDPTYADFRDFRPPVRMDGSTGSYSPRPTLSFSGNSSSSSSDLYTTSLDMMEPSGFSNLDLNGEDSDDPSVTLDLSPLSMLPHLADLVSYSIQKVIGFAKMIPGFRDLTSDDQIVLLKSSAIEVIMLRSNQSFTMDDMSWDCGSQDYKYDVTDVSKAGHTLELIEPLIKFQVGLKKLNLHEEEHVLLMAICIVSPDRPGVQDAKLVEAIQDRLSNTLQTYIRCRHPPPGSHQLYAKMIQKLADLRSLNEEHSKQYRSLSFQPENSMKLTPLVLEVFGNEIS
Description: Competitive binding of the analogs to the porcine intestinal receptor was carried out by the method described by Dame et al (Biochemistry 25, 4523-4534, 1986).
Full-length recombinant rat receptor was expressed in E. coli BL21 (DE3) Codon Plus RIL cells and purified using two different column chromatography systems. The first system was a nickel affinity resin that utilized the C-terminal histidine tag on this protein. The protein that was eluted from this resin was further purified using ion exchange chromatography (S-Sepharose Fast Flow). Aliquots of the purified protein were quick frozen in liquid nitrogen and stored at −80° C. until use. […]
Unlabeled ligands were dissolved in ethanol and the concentrations determined using UV spectrophotometry. […]
Radiolabeled and unlabeled ligands were added to 100 mcl of the diluted protein, mixed and incubated overnight on ice to reach binding equilibrium. […] Total binding was determined from the tubes containing only radiolabeled ligand. The percentage of competition was calculated by subtracting the number of dpm remaining in the hydroxylapatite pellet from the total number of dpm bound, dividing by the total number of dpm bound and multiplying by one hundred. Duplicate tubes were prepared and analyzed for each test concentration.

[3] = tested on: 24-hydroxylase (24OHase) gene promoter in ROS 17/2.8 (bone) cells; assay: Transcription activation, 24-hydroxylase promoter luciferase reporter; type: cell-based; conditions: luciferase 16 h after dosing, FIG. 3
Description: Transcriptional activity was measured in ROS 17/2.8 (bone) cells that were stably transfected with a 24-hydroxylase (24OHase) gene promoter upstream of a luciferase reporter gene (Arbour et al., 1998). Cells were given a range of doses. Sixteen hours after dosing the cells were harvested and luciferase activities were measured using a luminometer.
“RLU” in FIG. 3 refers to relative luciferase units.

[4] = Bone calcium mobilization (serum calcium); type: in vivo, rat; conditions: male Sprague-Dawley rats, low calcium diet, four intraperitoneal doses; FIGS. 5 and 6
Description: (§1) Weanling, male Sprague-Dawley rats were purchased from Harlan. Upon receipt, the animals were identified by individual tail marks and fed a calcium containing (0.47%) diet (Suda et al., Purified Rodent Diet-Diet 11; Appendix A) for one week before switching to the same diet devoid of calcium (0.02%). Water and a purified rodent diet (Diet 11; Appendix A) containing either 0.47% or 0.02% calcium and 0.3% phosphorus were provided ad libitum. Animals were fed the purified diet containing 0.47% calcium for the first week and then the 0.02% calcium containing diet for the next three weeks of the study. The rats were then fed 0.47% calcium containing diet for one week before switching back to 0.02% calcium containing diet for the remainder of the study. During the second week back on 0.02% calcium containing diet, the animals were tail-bled (baseline serum calcium) and then dose administration was initiated. All doses were administered intraperitoneally in 100 microliters of propylene glycol. Four consecutive doses were given approximately 24 hours apart. Twenty-four hours after the last dose, blood was collected from the tail artery of each experimental animal. […] The level of calcium was determined by diluting the serum into 0.1% lanthum chloride and measuring the absorbance on an atomic absorption spectrophotometer (Perkin Elmer Model 3110, Shelton, Conn.).

[5] = Intestinal calcium transport (everted gut sac); type: in vivo, rat; conditions: male Sprague-Dawley rats, low calcium diet, four intraperitoneal doses; FIG. 4
Description: as §1, with “diet,” for “diet, the animals were tail-bled (baseline serum calcium) and then”, “began.” for “was initiated.”, “apart.” for “apart. Twenty-four hours after the last dose, blood was collected from the tail artery of each experimental animal.”, “Conn.). Twenty-four hours after the last dose, intestinal calcium transport was assessed ex vivo using the everted gut sac technique.” for “Conn.).”

Compound: C=C1/C(=C\C=C2/CCC[C@]3(C)[C@@H]([C@H](C)CCCC(C)(C)O)CC[C@@H]23)C[C@@H](O)C[C@@H]1O [C001, 1α,25-dihydroxyvitamin D3, reference compound]
- percent of HL-60 cells induced to differentiate [1]: ~90%

Compound: C=C1[C@H](O)CC(=C/C=C2\CCC[C@@H]3C([C@@H](C)CCCC(C)(C)O)CC[C@@H]23)C[C@H]1O (stereo partly drawn) [DP035, (20S)-2-methylene-18,19-dinor-1α,25-dihydroxyvitamin D3]
- activity in binding to the 1α,25-dihydroxyvitamin D3 receptor [2]: very active
- transcriptional activity compared with 1α,25-dihydroxyvitamin D3 [3]: higher transcriptional activity
- potency in promoting differentiation of leukemia cells compared with 1α,25-dihydroxyvitamin D3 ([1]; HL-60 cells): more potent
- percent of HL-60 cells induced to differentiate [1]: the same degree of differentiation
- ability to mobilize calcium from bone compared with 1α,25-dihydroxyvitamin D3 [4]: clearly not as active
- intestinal calcium transport activity compared with 1α,25-dihydroxyvitamin D3 [5]: as active as
